From patent US12612392B2, “Compound, pharmaceutical compositions containing same, synthesis method therefor and use thereof” (SHENZHEN ZHONGGE BIOLOGICAL TECHNOLOGY CO., LTD., priority 2022, dated 2026)

Assays:
CYP3A4 = molecular target: T1, CYP3A4 (Homo sapiens, UniProt P08684); assay: P450 enzyme inhibition, CYP3A4; format: in vitro ADME; settings: human liver microsome, substrate Testosterone
T1 construct: A phosphate buffer solution of liver microsomes was prepared; from tissue; host or cells: human liver microsomes
T1 sequence (P08684 whole entry): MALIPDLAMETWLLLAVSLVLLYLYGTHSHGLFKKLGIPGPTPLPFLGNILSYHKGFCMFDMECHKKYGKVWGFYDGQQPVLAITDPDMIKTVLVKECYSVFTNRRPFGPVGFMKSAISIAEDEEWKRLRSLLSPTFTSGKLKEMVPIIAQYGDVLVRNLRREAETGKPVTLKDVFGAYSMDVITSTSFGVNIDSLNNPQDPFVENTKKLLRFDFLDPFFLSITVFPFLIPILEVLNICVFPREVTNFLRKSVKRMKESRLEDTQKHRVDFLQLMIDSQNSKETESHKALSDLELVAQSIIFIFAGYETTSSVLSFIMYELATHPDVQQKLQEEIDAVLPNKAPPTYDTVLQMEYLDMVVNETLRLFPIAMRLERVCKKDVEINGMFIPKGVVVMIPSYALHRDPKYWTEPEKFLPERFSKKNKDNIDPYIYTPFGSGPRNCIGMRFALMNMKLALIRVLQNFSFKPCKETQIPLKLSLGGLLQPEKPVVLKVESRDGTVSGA
Method: (§1) A phosphate buffer solution of liver microsomes was prepared. 169 μL of the phosphate buffer solution of liver microsomes and 1 μL of working solutions of various concentrations of test compounds or positive control compounds were added to a 96-well plate. The culture plate was placed in a water bath and pre-heated at 37° C. for 15 minutes. After the incubation, 10 μL of substrates were added to the culture plate (1 μL of substrates and 9 μL of the K-Mg buffer solution were added to the plate for CYP3A4-T). The incubation mixture was mixed on a rotating mixer for 10 seconds, and then 20 μL of a 10 mM NADPH solution was added to start the reaction at a final concentration of 1 mM. The experiment was repeated twice. At the predetermined time points listed in Table 4, the reaction was quenched by adding 400 μL of the quenching solution (cold ACN containing 500 nM mephetedrine and 10 nM terfenadine). Centrifugation was performed at 3220 g for 50 minutes at 4° C. 100 μl of the supernatant was transferred to a new plate. The supernatant was diluted with 100 μL of pure water. The mixture was mixed evenly, and the sample was analyzed by UPLC-MS/MS.

[1] = In vitro liver microsome stability; format: in vitro ADME; settings: liver microsomes, NADPH, 37° C.
Method: A 5 mM MgCl2 100 mM K-Mg buffer solution was pre-heated. 5 μL of a 10 mM compound and a reference stock solution were added to 95 μL of acetonitrile (ACN) to prepare a spiked solution. 1.5 μL of a 500 µM spiked solution and 18.75 μL of 20 mg/mL liver microsomes were added to 479.8 μL of the K-Mg buffer solution. NADPH was dissolved in the K-Mg-buffer solution to prepare an NADPH stock solution ([…]). At different time points (0, 5, 15, 30 and 45 minutes), 30 μL of a 1.5 μM spiked solution containing the microsomes was evenly dropped into an assay plate. The plate was preincubated at 37° C. for 5 minutes. At 0 min, 200 μL of ACN containing IS (internal standard, tolbutamid/terfenadine) was added to the wells, and then 15 μl of the NADPH stock solution (6 mM) was added. For other time points, 15 μL of the NADPH stock solution (6 mM) was added to the wells to initiate the reaction and start the timing. At 5, 15, 30 and 45 min, the reaction was stopped by adding 200 μL of ACN containing IS to the corresponding wells of the plate. After quenching, the plate was shaken at 600 rpm for 10 minutes and then centrifuged at 4000 rpm for 50 minutes. 80 μL of the supernatant from each well was transferred to a 96-well sample plate containing 160 μL of pure water for UPLC/MS/MS analysis.

CYP2D6 = molecular target: T2, CYP2D6 (Homo sapiens, UniProt P10635); assay: P450 enzyme inhibition, CYP2D6; format: in vitro ADME; settings: human liver microsome, substrate Dextromethorphan
T2 construct: A phosphate buffer solution of liver microsomes was prepared; from tissue; host or cells: human liver microsomes
T2 sequence (P10635 whole entry): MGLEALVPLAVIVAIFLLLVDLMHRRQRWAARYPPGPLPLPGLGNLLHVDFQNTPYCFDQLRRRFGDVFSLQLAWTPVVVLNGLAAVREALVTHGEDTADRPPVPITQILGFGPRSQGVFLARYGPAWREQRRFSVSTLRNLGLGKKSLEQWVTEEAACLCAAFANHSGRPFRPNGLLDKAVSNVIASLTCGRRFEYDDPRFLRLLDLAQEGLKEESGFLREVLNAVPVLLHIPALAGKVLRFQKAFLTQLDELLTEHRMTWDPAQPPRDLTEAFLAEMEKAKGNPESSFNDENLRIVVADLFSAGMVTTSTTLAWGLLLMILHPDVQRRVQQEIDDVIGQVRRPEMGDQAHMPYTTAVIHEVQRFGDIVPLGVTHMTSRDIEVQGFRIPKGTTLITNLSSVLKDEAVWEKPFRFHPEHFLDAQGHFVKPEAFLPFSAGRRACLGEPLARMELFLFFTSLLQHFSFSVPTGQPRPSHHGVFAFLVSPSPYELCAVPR
Method: as §1

[2] = Pharmacokinetic evaluation in mice; format: in vivo
Method: The test compounds were dissolved in vehicles to prepare clear solutions or homogeneous suspensions. […] Blood samples were collected at 0.083 h, 0.25 h, 0.5 h, 1 h, 2 h, 4 h, 8 h, and 24 h after the intravenous administration, and at 0.25 h, 0.5 h, 1 h, 2 h, 4 h, 6 h, 8 h, and 24 h after the oral administration. Plasma samples were centrifuged, and the supernatant was collected to prepare samples, which were then quantitatively analyzed by LC/MS/MS.

[3] = test system: HEK293T/17-ATF4 uORF-Luc-Puro monoclonal cells; assay: Cell activity test: ATF4 luciferase reporter, thapsigargin-induced stress; format: cell-based; settings: Homo sapiens, HEK-293T; ATF4 reporter expression, 50 nM thapsigargin, 6 hours
Text: The ATF4 luciferase reporter plasmid consists of two parts, i.e., the 5′ untranslated region sequence of the ATF4 gene and the luciferase coding sequence. Specifically, the ATF4 5′ untranslated region sequence (NCBI database number BC022088.2) containing two upstream open reading frames (uORFs), and the firefly luciferase encoding gene were cloned into the pLVX-Puro vector (YouBio, VT1465). The lentivirus packaging plasmids were psPAX2 (YouBio, VT1444) and pMD2.G (YouBio, VT1443). HEK293T/17 cells were transfected with the above three plasmids simultaneously using X-tremeGENE 9 DNA transfection reagent, and after 48 hours, a culture medium containing lentivirus was collected. HEK293T/17 cells transduced with the virus were screened with 1 μg/mL puromycin, and then monoclonal cells were obtained by limiting dilution.
By using this cell line and the cold fluorescence readings, the translational regulation of ATF4 can be detected, and the activity of the eIF2B activator can be tested. The specific experimental process is as follows: 6000 HEK293T/17-ATF4 uORF-Luc-Puro monoclonal cells were plated in a 384-well plate and allowed to adhere overnight. The test compounds were dissolved in DMSO and added together with 50 nM thapsigargin to the cell culture medium and incubated for 6 hours, wherein the thapsigargin was used to cause cellular stress and upregulate the protein translation of ATF4. Six hours after the addition, the cells were lysed using the One-Glo Luciferase Assay Kit (Promega #E6120), and then the cold fluorescence values were read using the LUM program of the EnVision 2104 plate reader.
The ATF4 reporter expression % was calculated as follows:
[formula] • ave_vc: average signal value of negative control • ave_pc: average signal value of positive control • ave_sample: average signal value of sample
The dose-response curves were fitted, and the EC50 values were calculated.
The nonlinear regression log (inhibitor) vs. response—variable slope (four parameters) method of GraphPad 9 software was used to fit the corresponding relationship between the ATF4 reporter expression % and the compound concentration.
X-axis: log value of compound concentration; Y-axis: ATF4 reporter expression %; Top: evaluation of upper asymptote of curve; Bottom: evaluation of lower asymptote of curve; Hillslope: slope of the fitted curve.

[4] = Cell membrane permeability (A to B / B to A, efflux ratio); format: in vitro ADME
Method: The test compounds were diluted from 10 mM stock solutions to a concentration of 10 μM using the transport buffer (HBSS+BSA) and applied to the apical or basolateral side of the cell monolayer. After the incubation at 37° C., 5% CO2 and 95% relative humidity for 120 minutes, the permeability of the test compounds in the A to B direction or the B to A direction was tested in duplicate. In addition, the efflux ratio of each compound was determined. The test substances and reference substances were quantitatively analyzed by the LC-MS/MS method based on the analyte/IS peak area ratio.

Q: What does the source list for `O=C(COc1ccc(Cl)c(F)c1)N[C@H]1CC[C@H](c2nnc(N3CC(OC(F)(F)F)C3)o2)CC1` [Compound 6]?
A: IC50 (CYP3A4): > 30 µM; half-life at 1 µM [1]: > 90 min; IC50 (CYP2D6): > 30 µM; pharmacokinetic properties in mice ([2]; Cl, T1/2, Cmax, AUC, F): excellent pharmacokinetic properties in mice; AUC(0-inf) ([2]; plasma, mouse IV (1 mg/kg)): 11.4 µg·h/mL; C0 ([2]; plasma, mouse IV (1 mg/kg)): 1240 ng/mL; clearance ([2]; plasma, mouse IV (1 mg/kg)): 1.46 mL/min/kg; half-life ([2]; plasma, mouse IV (1 mg/kg)): 381 min; Vd ([2]; plasma, mouse IV (1 mg/kg), read-out: Vss): 0.707 L/kg; AUC(0-inf) ([2]; plasma, mouse PO (30 mg/kg)): 516 µg·h/mL; Cmax ([2]; plasma, mouse PO (30 mg/kg)): 48000 ng/mL; Tmax ([2]; plasma, mouse PO (30 mg/kg)): 3.33 h; half-life ([2]; plasma, mouse PO (30 mg/kg)): 187 min; bioavailability ([2]; plasma, mouse PO (30 mg/kg) vs IV (1 mg/kg)): 161%; EC50 [3]: < 1 nM; efflux ratio at 120 min, 10 µM [4]: 0.71; Papp A→B at 120 min, 10 µM ([4]; 37° C.): 25.8 ×10⁻⁶ cm/s; Papp B→A at 120 min, 10 µM ([4]; 37° C.): 18.4 ×10⁻⁶ cm/s
